According to publication PMC11224556, “Next-generation of BBQ analogues that selectively target breast cancer” (Frontiers in Chemistry, 2024):
Where two headings read alike, the source gives them in different places.

Tests used:
Format in all cases: cell-based, human
[1] = system: MDA-MB-231 breast cancer cells; experiment: MTT growth inhibition assay (72 h); settings: MDA-MB-231, Breast (TN)
Source text: (§1) Each BBQ analogue, 2-14 was screened for their growth inhibition ability (GI50) in a broad panel of cancer cell lines and a non-cancer breast cell line (MCF10A), using the MTT growth inhibition assay (Table 1) ([Baker et al., 2021b]). The cancer panel comprised HT29 (colorectal), U87 (brain), SJ-G2 (brain), A2780 (ovary), Du145 (prostate), BE2-C (neuronal), MIA (pancreas), H460 (lung, ER+), A431 (vulva, ER+ (estrogen receptor positive)), and a wide selection of breast cancer cell lines with varying receptor status including MCF-7 (ER + luminal A), T47D (ER/PR+ (progesterone receptor positive)luminal A), ZR-75-1 (ER/PR + luminal A), BT-474 (ER/PR/HER2+ luminal B), SKBR-3 (HER2+), MDA-MB-468, BT20, and MDA-MB-231 (basal, triple negative (TN) for ER, PR, and HER2).
(§2) Stock solutions were prepared as follows and stored as 20 mM DMSO solutions at −20 °C. All cell lines were cultured in a humidified atmosphere 5% CO2 at 37 °C. The cancer cell lines were maintained in Dulbecco’s modified Eagle’s medium (DMEM) (Trace Biosciences, Australia) supplemented with 10% foetal bovine serum (FBS), 10 mM sodium bicarbonate, penicillin (100 IU/mL), streptomycin (100 μg/mL), and glutamine (4 mM). The non-cancer MCF10A cell line was cultured in DMEM:F12 (1:1) cell culture media, 5% heat inactivated horse serum, supplemented with penicillin (50 IU/mL), streptomycin (50 μg/mL), 20 mM Hepes, L-glutamine (2 mM), epidermal growth factor (20 ng/mL), hydrocortisone (500 ng/mL), cholera toxin (100 ng/mL), and insulin (10 μg/mL). The AhR reporter cell line HT29-Lucia™ (Invivogen, United States) was maintained in DMEM supplemented with 10% heat inactivated FBS, L-glutamine (2 mM), penicillin (100 IU/mL), streptomycin (100 μg/mL), 100 μg/mL Normocin™, and 100 μg/mL of the selective antibiotic Zeocin™. All cell lines were purchased from the American Type Culture Collection (ATCC), except for A2780 and A431 which were from the European Collection of Authenticated Cell Cultures (ECACC), and SJ-G2 cell line which was from Dr Mary Danks, St Jude Children’s Research hospital, Memphis, TN.
(§3) Cells in logarithmic growth were transferred to 96-well plates. Cytotoxicity was determined by plating cells in duplicate in 100 μL medium at a density of 2,500–4,000 cells/well in 96 well plates. On day 0, (24 h after plating) when the cells were in logarithmic growth 100 μL medium with or without the test agent was added to each well. After 72 h drug exposure growth inhibitory effects were evaluated using the MTT (3-[4,5-dimethylthiazol-2-yl]-2,5-diphenyltetrazolium bromide) assay with absorbance read at 540 nm. An eight-point dose response curve was produced, using MS Excel software. From these dose-response curves, the GI50 value was calculated, representing the drug concentration at which cell growth is 50% inhibited based on the difference between the optical density values on day 0 and those at the end of drug exposure ([Bradshaw et al., 2008]; [Zhang et al., 2009]). Each data point was conducted in duplicate and the mean ± S.E.M. calculated from four to five replicates (n = 4 or 5), which were performed on separate occasions and separate cell line passages. Where shown, significant test results were determined using T-test analysis at p < 0.01 and p < 0.05 with a two tail distribution.

H460 (lung) cells = experiment: MTT growth inhibition assay (72 h)
Source text: as §1, §2, §3

T47D breast cancer cells = experiment: MTT growth inhibition assay (72 h); settings: Breast (ER/PR)
Source text: as §1, §2, §3

[2] = system: MCF-7 breast cancer cells; experiment: MTT growth inhibition assay (72 h)
Source text: as §1, §2, §3

[3] = system: SKBR3 breast cancer cells; experiment: MTT growth inhibition assay (72 h)
Source text: as §1, §2, §3

BT20 breast cancer cells = experiment: MTT growth inhibition assay (72 h)
Source text: as §1, §2, §3

Du145 (prostate) cells = experiment: MTT growth inhibition assay (72 h)
Source text: as §1, §2, §3

SJ-G2 (brain) cells = experiment: MTT growth inhibition assay (72 h); settings: SJ-G2, Brain (GBM)
Source text: as §1, §2, §3

[4] = system: ZR-75-1 breast cancer cells; experiment: MTT growth inhibition assay (72 h); settings: ZR-75-1, Breast (ER/PR)
Source text: as §1, §2, §3

A2780 (ovary) cells = experiment: MTT growth inhibition assay (72 h)
Source text: as §1, §2, §3

[5] = system: BT474 breast cancer cells; experiment: MTT growth inhibition assay (72 h)
Source text: as §1, §2, §3

BE2-C (neuronal) cells = experiment: MTT growth inhibition assay (72 h); settings: Neuron
Source text: as §1, §2, §3

A431 (vulva/skin) cells = experiment: MTT growth inhibition assay (72 h)
Source text: as §1, §2, §3

U87 (brain) cells = experiment: MTT growth inhibition assay (72 h); settings: U87, Brain (GBM)
Source text: as §1, §2, §3

MIA (pancreas) cells = experiment: MTT growth inhibition assay (72 h)
Source text: as §1, §2, §3

[6] = system: MDA-MB-468 breast cancer cells; experiment: MTT growth inhibition assay (72 h); settings: MDA-MB-468, Breast (TN)
Source text: as §1, §2, §3

[7] = system: MCF10A normal breast cells; experiment: MTT growth inhibition assay (72 h)
Source text: as §1, §2, §3

[8] = system: broad panel of cancer cell lines and non-cancer breast cell line MCF10A; experiment: MTT growth inhibition: GI50 ranges and selectivity across the cell line panel
Source text: as §1, §2, §3

HT29 (colorectal) cells = experiment: MTT growth inhibition assay (72 h)
Source text: as §1, §2, §3

[9] = Homo sapiens, NCI-H460, H460, Lung (ER)
[10] = Homo sapiens, MCF7, MCF-7, Breast (ER)
[11] = Homo sapiens, SK-BR-3, SKBR3, Breast (HER2)
[12] = Homo sapiens, BT-20, BT20, Breast (TN)
[13] = Homo sapiens, BT-474, BT474, Breast (ER/PR/HER2)
[14] = Homo sapiens, A-431, A431, Skin (ER)

Compound | GI50 ([1]; Homo sapiens) [µM] | GI50 (H460 (lung) cells; [9]) [µM] | GI50 (T47D breast cancer cells; Homo sapiens) [µM] | GI50 [2, 10] [µM] | GI50 [3, 11] [µM] | GI50 (BT20 breast cancer cells; [12]) [µM] | GI50 (Du145 (prostate) cells; Homo sapiens, DU-145) [µM] | GI50 (SJ-G2 (brain) cells; Homo sapiens) [µM] | GI50 ([4]; Homo sapiens) [µM] | GI50 (A2780 (ovary) cells; Homo sapiens) [µM] | GI50 [5, 13] [µM] | GI50 (BE2-C (neuronal) cells; Homo sapiens, BE(2)-C) [µM] | GI50 (A431 (vulva/skin) cells; [14]) [µM] | GI50 (U87 (brain) cells; Homo sapiens) [µM] | GI50 (MIA (pancreas) cells; Homo sapiens) [µM] | GI50 ([7]; Homo sapiens, MCF-10A) [µM] | GI50 [1] [µM] | GI50 (H460 (lung) cells; H460, Lung (ER)) [µM] | GI50 ([2]; MCF-7, Breast (ER)) [µM] | GI50 ([3]; SKBR3, Breast (HER2)) [µM] | other results
O=C(O)c1ccc2c3c1cccc3c(=O)n1c3ccccc3nc21 [Compound 14, reference compound] | 50 | 20 ± 0.33 | 16 ± 0.58 | > 50 | 21 ± 0.67 | 50 | 21 ± 2 | 13 ± 1.2 | 24 ± 3.3 | 12 ± 0.91 | > 50 | 6.9 ± 1.6 | 28 ± 5.1 | 25 ± 1.7 | 20 ± 0.67 | 15 ± 0.58 | – | – | – | – | GI50 ([6]; Homo sapiens): 6.13 ± 3.05 µM
O=c1c2cccc3cccc(c32)c2nc3ccc(Cl)cc3n12 [Compound 3, 10-Chloro-7H-benzo[de]benzo[4,5]imidazo[2,1-a]isoquinolin-7-one] | 17 ± 6.1 | 7.2 ± 1.16 | 11 ± 1.4 | 7.9 ± 1.14 | 0.3 ± 0.12 | 33 ± 4 | 22 ± 3.1 | 33 ± 8.3 | 0.48 ± 0.24 | 6.2 ± 0.46 | > 50 | 17 ± 4.3 | 12 ± 1.8 | 18 ± 3.8 | > 50 | 3.9 ± 0.21 | – | – | – | – | GI50 ([8]; Homo sapiens, read-out: GI50 (range over cell lines and both compounds 3 and 4), ZR-75-1, SKBR3 and MDA-MB-468): 0.26 to 0.88 µM; GI50 (HT29 (colorectal) cells; Homo sapiens, HT-29, HT29, Colon): 21 ± 3.3 µM
7-Oxo-7H-benzo[de]benzo[4,5]imidazo[2,1-a]isoquinoline-10-carbonitrile (9a) and 7-oxo-7H-benzo[de]benzo[4,5]imidazo[2,1-a]isoquinoline-11-carbonitrile (9b) [Compound 9] | – | – | – | – | – | – | – | – | – | – | – | – | – | – | – | – | 38 ± 6 | 41 ± 5.9 | 25 ± 8.3 | 0.27 ± 0.018 | GI50 (T47D breast cancer cells): 4.2 ± 0.73 µM; GI50 (HT29 (colorectal) cells; HT29, Colon): 44 ± 6.3 µM; GI50 (BT20 breast cancer cells; BT20, Breast (TN)): 9.3 ± 8.4 µM; GI50 (Du145 (prostate) cells): 45 ± 1.7 µM; GI50 (SJ-G2 (brain) cells): 26 ± 3.8 µM; GI50 [4]: 0.089 ± 0.04 µM; GI50 (A2780 (ovary) cells): 7 ± 0.64 µM; GI50 ([5]; BT474, Breast (ER/PR/HER2)): > 50 µM; GI50 (BE2-C (neuronal) cells): > 50 µM; GI50 (A431 (vulva/skin) cells; A431, Skin (ER)): 1.1 ± 0.1 µM; GI50 (U87 (brain) cells): 43 ± 4 µM; GI50 (MIA (pancreas) cells): 41 ± 9.5 µM; GI50 [6]: 0.074 ± 0.021 µM; GI50 [7]: 7.8 ± 1.62 µM
3-Nitro-7H-benzo[de]benzo[4,5]imidazo[2,1-a]isoquinolin-7-one (11a) and 4-nitro-7H-benzo[de]benzo[4,5]imidazo[2,1-a]isoquinolin-7-one (11b) [Compound 11] | – | – | – | – | – | – | – | – | – | – | – | – | – | – | – | – | 2.1 ± 0.29 | 0.00019 ± 0.0001 | 0.0065 ± 0.0038 | 0.036 ± 0.006 | fold more potent than head group substituted analogues 3, 4, 6, 7, 8 and 9 ([8]; across the cell lines examined (Table 1)): > 10 fold; GI50 (HT29 (colorectal) cells; HT29, Colon): 0.3 ± 0.11 µM; GI50 (BT20 breast cancer cells; BT20, Breast (TN)): 0.0084 ± 0.004 µM; GI50 (Du145 (prostate) cells): 0.32 ± 0.049 µM; GI50 (SJ-G2 (brain) cells): 0.61 ± 0.14 µM; GI50 [4]: 0.0027 ± 0.0022 µM; GI50 (A2780 (ovary) cells): 0.01 ± 0.003 µM; GI50 ([5]; BT474, Breast (ER/PR/HER2)): 0.15 ± 0.053 µM; GI50 (BE2-C (neuronal) cells): 0.74 ± 0.13 µM; GI50 (A431 (vulva/skin) cells; A431, Skin (ER)): 0.088 ± 0.031 µM; GI50 (U87 (brain) cells): 0.55 ± 0.11 µM; GI50 (MIA (pancreas) cells): 1.4 ± 0.45 µM; GI50 [6]: 0.0015 ± 0.0008 µM; GI50 [7]: 0.0031 ± 0.002 µM
